From patent US20230023092A1, “TREATMENT OF DEPRESSION AND OTHER VARIOUS DISORDERS WITH PSILOCYBIN” (COMPASS […], priority 2019, published 2023)

System: healthy subjects
Experiment: Life Changes Inventory (LCI)
Type: in vivo, human
Excerpt: In some embodiments, the Life Changes Inventory (LCI) questionnaire is utilized to evaluate the safety and/or efficacy of psilocybin. The LCI is designed as a questionnaire to investigate those variables present in the day-to-day experience of adults that might relate either to stability or decline of intellectual ability.
The following list of outcome measures are non-exhaustive. • a. The short-term change from Baseline (Day −1 [Visit 2]) to Day 7 (Visit 5) in cognitive measures of attention, spatial and working memory and executive function was measured by a composite score of the CANTAB Panel (Spatial Working Memory [SWM], Rapid Visual Information Processing [RVP], Paired Associates Learning [PAL]). • b. The short-term change from Baseline (Day −1 [Visit 2]) to Day 7 (Visit 5) in Social Cognition Panel scales (Pictorial Empathy Test [PET], Reading the Mind in the Eyes Test [RMET], Toronto Empathy Questionnaire [TEQ], Social Value Orientation [SVO], Scale of Social Responsibility [SSR]). • c. The change from Baseline (Day −1 [Visit 2]) to Day 28 (Visit 6) in cognitive measures of attention, spatial and working memory and executive function as measured by a composite score of the CANTAB Panel (SWM, RVP, PAL). • d. The long-term change from Baseline (Day −1 [Visit 2]) to Day 84 (Visit 7) in Social Cognition Panel scales (PET, RMET, TEQ, SVO, SSR). • e. Dose-related differences between cognitive effects of psilocybin at Baseline (Day −1 [Visit 2]), Day 7 (Visit 5) and Day 28 (Visit 6), as measured by a composite score of the CANTAB Panel (SWM, RVP, PAL). • f. Dose-related differences between psychological effects of psilocybin at Baseline (Day −1 [Visit 2]), Day 7 (Visit 5) and Day 84 (Visit 7), as measured by Social Cognition Panel scales (PET, RMET, TEQ, SVO, SSR). • g. Differences in cognitive effects of psilocybin between psilocybin-naïve and experienced subjects at Baseline (Day −1 [Visit 2]), Day 7 (Visit 5) and Day 28 (Visit 6), as measured by a composite score of the CANTAB Panel (SWM, RVP, PAL). • h. Differences in Positive and Negative Affect Schedule (PANAS) after study drug administration on Day 0 (Visit 3). • i. Differences between psilocybin and placebo in the Emotion Recognition Test (ERT), Intra-Extra Dimensional Set Shift (IED), One Touch Stockings (OTS), Verbal Fluency and Digit Span Forward at Day 7 (Visit 5). • j. A composite score of the CANTAB Panel, including the following tests: • i. Spatial Working Memory (SWM) (performed at Visit 2, Visit 5, and Visit 6). • ii. Rapid Visual Information Processing (RVP) (performed at Visit 2, Visit 5, and Visit 6). • iii. Paired Associates Learning (PAL) (performed at Visit 2, Visit 5, and Visit 6). • k. Cognitive Flexibility Panel • i. Emotion Recognition Task (ERT) (performed at Visit 5). • ii. Intra-Extra Dimensional Set Shift (IED) (performed at Visit 5). • iii. One Touch Stockings (OTS) (performed at Visit 5). • iv. Verbal Fluency (performed at Visit 5). • v. Digit Span Forward (performed at Visit 5). • l. Five Dimension Altered States of Consciousness questionnaire (5D-ASC) (performed at Visit 3). • m. PANAS (performed at Visit 2 and Visit 3). • n. NEO-Five Factor Inventory (NEO-FFI) (performed at Visit 2, Visit 5, and Visit 7). • o. Symptom Checklist-90 item (SCL-90) (performed at Visit 2, Visit 5, and Visit 7). • p. Life Changes Inventory (LCI): The LCI measures changes in attitudes and values after near-death experiences often used to evaluate personal transformation following spiritually oriented experiences and practices. (performed at Visit 5 and Visit 7). • q. Social Cognition Panel scales • i. Pictorial Empathy Test (PET) (performed at Visit 2, Visit 5, and Visit 7). • ii. Reading the Mind in the Eyes Test (RMET) (performed at Visit 2, Visit 5, and Visit 7). • iii. Social Value Orientation (SVO) (performed at Visit 2, Visit 5, and Visit 7). • iv. Toronto Empathy Questionnaire (TEQ) (performed at Visit 2, Visit 5, and Visit 7). • v. […]

With `CN(C)CCc1c[nH]c2cccc(OP(=O)(O)O)c12` [Psilocybin, psilocybin] the “LCI appreciation for life, LS mean difference Psilocybin 10 mg-Placebo” value (Day 7) was 0.6, the “LCI appreciation for life, LS mean difference Psilocybin 25 mg-Placebo” value (Day 7) was 0.5 and the “LCI appreciation for life, LS mean difference Psilocybin (25 mg-10 mg)” value (Day 7) was −0.2. For the same compound, the “LCI appreciation of death, LS mean difference Psilocybin 10 mg-Placebo” value (Day 7) was 0.1, the “LCI appreciation of death, LS mean difference Psilocybin 25 mg-Placebo” value (Day 7) was 0.1 and the “LCI appreciation of death, LS mean difference Psilocybin (25 mg-10 mg)” value (Day 7) was −0.0. The “LCI concern for others, LS mean difference Psilocybin 10 mg-Placebo” value (Day 7) was 0.4, the “LCI concern for others, LS mean difference Psilocybin 25 mg-Placebo” value (Day 7) was 0.4 and the “LCI concern for others, LS mean difference Psilocybin (25 mg-10 mg)” value (Day 7) was 0.0. The “LCI concern for worldly achievement, LS mean difference Psilocybin 10 mg-Placebo” value (Day 7) was −0.2, the “LCI concern for worldly achievement, LS mean difference Psilocybin 25 mg-Placebo” value (Day 7) was −0.1 and the “LCI concern for worldly achievement, LS mean difference Psilocybin (25 mg-10 mg)” value (Day 7) was 0.1. For the same compound, the “LCI concern social, LS mean difference Psilocybin 10 mg-Placebo” value (Day 7) was 0.1, the “LCI concern social, LS mean difference Psilocybin 25 mg-Placebo” value (Day 7) was 0.2 and the “LCI concern social, LS mean difference Psilocybin (25 mg-10 mg)” value (Day 7) was 0.1. For the same compound, the “LCI quest for meaning, LS mean difference Psilocybin 10 mg-Placebo” value (Day 7) was 0.4, the “LCI quest for meaning, LS mean difference Psilocybin 25 mg-Placebo” value (Day 7) was 0.4 and the “LCI quest for meaning, LS mean difference Psilocybin (25 mg-10 mg)” value (Day 7) was 0.0. For the same compound, the “LCI religiousness, LS mean difference Psilocybin 10 mg-Placebo” value (Day 7) was −0.1, the “LCI religiousness, LS mean difference Psilocybin 25 mg-Placebo” value (Day 7) was 0.0 and the “LCI religiousness, LS mean difference Psilocybin (25 mg-10 mg)” value (Day 7) was 0.1. The “LCI self-acceptance, LS mean difference Psilocybin 10 mg-Placebo” value (Day 7) was 0.7, the “LCI self-acceptance, LS mean difference Psilocybin 25 mg-Placebo” value (Day 7) was 0.5 and the “LCI self-acceptance, LS mean difference Psilocybin (25 mg-10 mg)” value (Day 7) was −0.1. For the same compound, the “LCI spirituality, LS mean difference Psilocybin 10 mg-Placebo” value (Day 7) was 0.3, the “LCI spirituality, LS mean difference Psilocybin 25 mg-Placebo” value (Day 7) was 0.2 and the “LCI spirituality, LS mean difference Psilocybin (25 mg-10 mg)” value (Day 7) was −0.1. The “LCI-absolute change, LS mean difference Psilocybin 10 mg-Placebo” value (Day 7) was 0.4, the “LCI-absolute change, LS mean difference Psilocybin 25 mg-Placebo” value (Day 7) was 0.3 and the “LCI-absolute change, LS mean difference Psilocybin (25 mg-10 mg)” value (Day 7) was −0.1. The “LCI appreciation for life, LS mean difference Psilocybin 10 mg-Placebo” value (Day 84) was 0.6, the “LCI appreciation for life, LS mean difference Psilocybin 25 mg-Placebo” value (Day 84) was 0.5 and the “LCI appreciation for life, LS mean difference Psilocybin (25 mg-10 mg)” value (Day 84) was −0.1. For the same compound, the “LCI appreciation of death, LS mean difference Psilocybin 10 mg-Placebo” value (Day 84) was 0.2, the “LCI appreciation of death, LS mean difference Psilocybin 25 mg-Placebo” value (Day 84) was 0.2 and the “LCI appreciation of death, LS mean difference Psilocybin (25 mg-10 mg)” value (Day 84) was 0.0. For the same compound, the “LCI concern for others, LS mean difference Psilocybin 10 mg-Placebo” value (Day 84) was 0.4, the “LCI concern for others, LS mean difference Psilocybin 25 mg-Placebo” value (Day 84) was 0.5 and the “LCI concern for others, LS mean difference Psilocybin (25 mg-10 mg)” value (Day 84) was 0.1. For the same compound, the “LCI concern for worldly achievement, LS mean difference Psilocybin 10 mg-Placebo” value (Day 84) was −0.2, the “LCI concern for worldly achievement, LS mean difference Psilocybin 25 mg-Placebo” value (Day 84) was −0.1 and the “LCI concern for worldly achievement, LS mean difference Psilocybin (25 mg-10 mg)” value (Day 84) was 0.1. For the same compound, the “LCI concern social, LS mean difference Psilocybin 10 mg-Placebo” value (Day 84) was 0.1, the “LCI concern social, LS mean difference Psilocybin 25 mg-Placebo” value (Day 84) was 0.1 and the “LCI concern social, LS mean difference Psilocybin (25 mg-10 mg)” value (Day 84) was 0.0. The “LCI quest for meaning, LS mean difference Psilocybin 10 mg-Placebo” value (Day 84) was 0.4, the “LCI quest for meaning, LS mean difference Psilocybin 25 mg-Placebo” value (Day 84) was 0.4 and the “LCI quest for meaning, LS mean difference Psilocybin (25 mg-10 mg)” value (Day 84) was −0.0. For the same compound, the “LCI religiousness, LS mean difference Psilocybin 10 mg-Placebo” value (Day 84) was −0.0, the “LCI religiousness, LS mean difference Psilocybin 25 mg-Placebo” value (Day 84) was 0.0 and the “LCI religiousness, LS mean difference Psilocybin (25 mg-10 mg)” value (Day 84) was 0.1. For the same compound, the “LCI self-acceptance, LS mean difference Psilocybin 10 mg-Placebo” value (Day 84) was 0.5, the “LCI self-acceptance, LS mean difference Psilocybin 25 mg-Placebo” value (Day 84) was 0.5 and the “LCI self-acceptance, LS mean difference Psilocybin (25 mg-10 mg)” value (Day 84) was 0.0. For the same compound, the “LCI spirituality, LS mean difference Psilocybin 10 mg-Placebo” value (Day 84) was 0.4, the “LCI spirituality, LS mean difference Psilocybin 25 mg-Placebo” value (Day 84) was 0.4 and the “LCI spirituality, LS mean difference Psilocybin (25 mg-10 mg)” value (Day 84) was −0.0. The “LCI-absolute change, LS mean difference Psilocybin 10 mg-Placebo” value (Day 84) was 0.4, the “LCI-absolute change, LS mean difference Psilocybin 25 mg-Placebo” value (Day 84) was 0.4 and the “LCI-absolute change, LS mean difference Psilocybin (25 mg-10 mg)” value (Day 84) was −0.0. For the same compound, the “LCI appreciation for life, LS mean” value (Psilocybin 10 mg, Day 7) was 0.8, the “LCI appreciation of death, LS mean” value (Psilocybin 10 mg, Day 7) was 0.2 and the “LCI concern for others, LS mean” value (Psilocybin 10 mg, Day 7) was 0.5. For the same compound, the “LCI concern for worldly achievement, LS mean” value (Psilocybin 10 mg, Day 7) was −0.2, the “LCI concern social, LS mean” value (Psilocybin 10 mg, Day 7) was 0.2 and the “LCI quest for meaning, LS mean” value (Psilocybin 10 mg, Day 7) was 0.5. The “LCI religiousness, LS mean” value (Psilocybin 10 mg, Day 7) was −0.0, the “LCI self-acceptance, LS mean” value (Psilocybin 10 mg, Day 7) was 0.8 and the “LCI spirituality, LS mean” value (Psilocybin 10 mg, Day 7) was 0.5. The “LCI-absolute change, LS mean” value (Psilocybin 10 mg, Day 7) was 0.5, the “LCI appreciation for life, LS mean” value (Psilocybin 10 mg, Day 84) was 0.8 and the “LCI appreciation of death, LS mean” value (Psilocybin 10 mg, Day 84) was 0.2. The “LCI concern for others, LS mean” value (Psilocybin 10 mg, Day 84) was 0.5, the “LCI concern for worldly achievement, LS mean” value (Psilocybin 10 mg, Day 84) was −0.2 and the “LCI concern social, LS mean” value (Psilocybin 10 mg, Day 84) was 0.2. The “LCI quest for meaning, LS mean” value (Psilocybin 10 mg, Day 84) was 0.5, the “LCI religiousness, LS mean” value (Psilocybin 10 mg, Day 84) was −0.0 and the “LCI self-acceptance, LS mean” value (Psilocybin 10 mg, Day 84) was 0.6. For the same compound, the “LCI spirituality, LS mean” value (Psilocybin 10 mg, Day 84) was 0.5, the “LCI-absolute change, LS mean” value (Psilocybin 10 mg, Day 84) was 0.5 and the “LCI appreciation for life, LS mean” value (Psilocybin 25 mg, Day 7) was 0.6. For the same compound, the “LCI appreciation of death, LS mean” value (Psilocybin 25 mg, Day 7) was 0.1, the “LCI concern for others, LS mean” value (Psilocybin 25 mg, Day 7) was 0.6 and the “LCI concern for worldly achievement, LS mean” value (Psilocybin 25 mg, Day 7) was −0.2. For the same compound, the “LCI concern social, LS mean” value (Psilocybin 25 mg, Day 7) was 0.2, the “LCI quest for meaning, LS mean” value (Psilocybin 25 mg, Day 7) was 0.5 and the “LCI religiousness, LS mean” value (Psilocybin 25 mg, Day 7) was 0.0. For the same compound, the “LCI self-acceptance, LS mean” value (Psilocybin 25 mg, Day 7) was 0.6, the “LCI spirituality, LS mean” value (Psilocybin 25 mg, Day 7) was 0.4 and the “LCI-absolute change, LS mean” value (Psilocybin 25 mg, Day 7) was 0.4. For the same compound, the “LCI appreciation for life, LS mean” value (Psilocybin 25 mg, Day 84) was 0.7, the “LCI appreciation of death, LS mean” value (Psilocybin 25 mg, Day 84) was 0.3 and the “LCI concern for others, LS mean” value (Psilocybin 25 mg, Day 84) was 0.7. For the same compound, the “LCI concern for worldly achievement, LS mean” value (Psilocybin 25 mg, Day 84) was −0.1, the “LCI concern social, LS mean” value (Psilocybin 25 mg, Day 84) was 0.2 and the “LCI quest for meaning, LS mean” value (Psilocybin 25 mg, Day 84) was 0.5. The “LCI religiousness, LS mean” value (Psilocybin 25 mg, Day 84) was 0.0, the “LCI self-acceptance, LS mean” value (Psilocybin 25 mg, Day 84) was 0.6 and the “LCI spirituality, LS mean” value (Psilocybin 25 mg, Day 84) was 0.5. The “LCI-absolute change, LS mean” value (Psilocybin 25 mg, Day 84) was 0.5.
